Values quoted from earlier work as cited in PMC5944417 (Heliyon, 2018).

Legend:
Conditions in all cases: ref Maes et al., 2007
plasmin = biological target: plasmin
trypsin = biological target: trypsin
porcine kallikrein = tested on: porcine kallikrein
endoproteinase Lys-C = tested on: endoproteinase Lys-C
papain = tested on: papain
cathepsin B = biological target: cathepsin B

Q: Which Ki (plasmin) does the source give for CC(=O)N[C@@H](CC(C)C)C(=O)N[C@@H](CC(C)C)C(=O)N[C@H](C=O)CCCNC(=N)N [Leupeptin, N-acetyl-L-leucyl-L-leucyl-L-argininal] here?
A: 3.5 nM

Q: What about the Ki (trypsin) of the same compound?
A: 3.4 nM

Q: And the inhibition (porcine kallikrein)?
A: inhibited

Q: And the inhibition (endoproteinase Lys-C)?
A: inhibited

Q: What about the inhibition (papain) of the same compound?
A: inhibited

Q: What about the Ki (cathepsin B) of the same compound?
A: 4.1 nM
